Assay results reported in US20080311681A1, “Antibody Binding Affinity Ligands” (priority 2004, published 2008).
Where “and” joins values, the source holds several entries; their conditions need not be identical. Identical values can stand only once.

tested on: Fc fragment of an antibody; experiment: Incubation of bead-bound ligands with labelled Fc fragment, fluorescence on beads; format: binding; design: key: 0 indicates no fluorescence; 3 indicates the strongest level of fluorescence observed; conditions: Oregon Green labelled Fc fragment, ligands on PEGA1900 beads, overnight at room temperature, arbitrary scale from 0 to 3, judged by eye
Method: The Fc fragment of an antibody was purified by dialysis in bicarbonate buffer (pH 8). The purified Fc fragment was treated with Oregon Green dye (50×) in DMF and kept for 1 hour at room temperature. The reaction was stopped by adding hydroxylamine (1.5 M, pH 8.5). The labelled polypeptide was purified by dialysis in bicarbonate buffer (pH 8).
The beads (10 mg) were washed with water (10×), bicarbonate buffer (pH 8, 10×), and were suspended in bicarbonate buffer for 1 h. The labelled polypeptide was then added to the resin and kept overnight at room temperature. The resin was washed with bicarbonate buffer (pH 8) and water.
The fluorescence on the beads was recorded by using a fluorescence microscope and a digital camera. A mercury lamp equipped with an emission filter provided excitation in the visible blue range. The images of the beads were recorded in water.
The below table lists the ligands and the corresponding apparent level of fluorescence determined by simply looking at the samples and comparing the apparent colour intensities between samples. On an arbitrary scale from 0 to 3, where 0 indicates no fluorescence and 3 indicates the strongest level of fluorescence observed.

Row | Substance | mark (apparent level of fluorescence)
1 | 3HBA-(L)Arg-(L)Pro-Gly [LII#44] | 2
2 | 3HBA-(L)Pro-(L)Arg-Gly [LII#45] | 2
3 | 4HBA-(L)Arg-(L)Pro-Gly [LII#46] | 2
4 | 4HBA-(L)Pro-(L)Arg-Gly [LII#47] | 2
5 | D-Lys-INA-(L)Arg-Gly [LI#41] | 2
6 | D-Phe-(L)Arg-(L)Arg-Gly [LI#16] | 2
7 | D-Pro-PPC-(L)Arg-Gly [L1#21] | 2
8 | DBHBA-(L)Arg-(L)Asn-Gly [LII#54] | 3
9 | DBHBA-(L)Asn-(L)Arg-Gly [LII#55] | 3
10 | INA-(L)Arg-D-Lys-Gly [LI#44] | 2
11 | INA-D-Phe-PPC-Gly [LI#12] | 2
12 | L-Arg-(L)Arg-D-Lys-Gly [LI#27] | 2
13 | L-Arg-(L)Arg-D-Phe-Gly [LI#18] | 2
14 | L-Arg-D-Lys-(L)Arg-Gly [LI#26] | 2
15 | L-Arg-D-Phe-(L)Arg-Gly [LI#17] | 3 and 2
16 | L-Arg-D-Pro-PPC-Gly [LI#24] | 2
17 | PPC-(L)Arg-D-Pro-Gly [LI#20] | 2
18 | PPC-Ahx-PPC-Gly [LI#53] | 2
19 | PPC-Aib-PPC-Gly [LI#14] | 2
20 | PPC-D-Leu-PPC-Gly [L1#50] | 3
21 | PPC-D-Pro-(L)Arg-Gly [LI#19] | 3
22 | PPC-Nle-PPC-Gly [LI#56] | 2
23 | SAA-(L)Arg-(L)Pro-Gly [LII#48] | 3
24 | SAA-(L)Pro-(L)Arg-Gly [LII#49] | 3

same assay, conditions: Oregon Green labelled Fc fragment, ligands on PEGA1900 beads, overnight at room temperature, arbitrary scale from 0 to 3, judged by eye; listed as L1#16

Row | Substance | mark (apparent level of fluorescence)
25 | D-Phe-(L)Arg-(L)Arg-Gly [LI#16] | 3

tested on: monoclonal antibody; experiment: Chromatographic evaluation of ligands coupled on Fractogel (packed column, load, wash, elution, regeneration); format: binding; conditions: not optimized operation conditions
Method: The new resins were assessed in packed mode. 1 mL of each resin was packed into an HR5 chromatography column (GE Healthcare) applying standard conditions.
Before loading the matrix with the monoclonal antibody, the column was equilibrated with 6 column volumes equilibration buffer containing 50 mM Na-phosphate (pH 7.0; cond. 9 mS cm^−1). After equilibration a monoclonal antibody solution in equilibration buffer (protein conc. 1.14 mg/mL) was loaded to the column. Subsequently, the column was washed with 6 column volumes of equilibration buffer and eluted with 6 column volumes of elution buffer 1 (25 mM sodium acetate pH 5.5; cond. 1.8 mS cm^−1) and 6 column volumes of elution buffer 2 (25 mM sodium acetate buffer pH 3.8; 0.5 mS cm^−1). The column was stored in […] ethanol. Afterwards, the matrix was regenerated with 40 mM phosphoric acid and 20 mM sodium hydroxid. The flow rate for equilibration, load and wash was 60 cm/h, elution and regeneration was performed at a flow rate of 30 cm/h.

Row | Substance | mAb in the flow through (in words)
26 | D-Phe-(L)Arg-(L)Arg-Gly [LI#16] | nothing was detected in the flow through
27 | DBHBA-(L)Asn-(L)Arg-Gly [LII#55] | only limited material is in the flow through
